Reference: publication PMC3914206

Tests used:
Assay type in all cases: binding
Parameters in all cases: KINOMEscan: ABL1(F317L)-phosphorylated / KINOMEscan: ABL1(H396P)-nonphosphorylated / KINOMEscan: ABL1(H396P)-phosphorylated / KINOMEscan: ABL1(M351T)-phosphorylated / KINOMEscan: ABL1(T315I)-phosphorylated / KINOMEscan: ABL1-nonphosphorylated / KINOMEscan: ABL1-phosphorylated / KINOMEscan: ACVR2A / KINOMEscan: ACVR2B / KINOMEscan: ADCK3 / KINOMEscan: ADCK4 / KINOMEscan: AKT1 / KINOMEscan: AKT3 / KINOMEscan: ALK / KINOMEscan: ARK5 / KINOMEscan: AURKA / KINOMEscan: AURKC / KINOMEscan: BIKE / KINOMEscan: BMPR1A / KINOMEscan: BMPR1B / KINOMEscan: BMX / KINOMEscan: BRK / KINOMEscan: BRSK1 / KINOMEscan: BRSK2 / KINOMEscan: CAMK1 / KINOMEscan: CAMK1D / KINOMEscan: CAMK1G / KINOMEscan: CAMK2A / KINOMEscan: CAMK2B / KINOMEscan: AAK1 / KINOMEscan: CAMK2D / KINOMEscan: CAMK2G / KINOMEscan: ABL1(F317I)-nonphosphorylated / KINOMEscan: ABL1(F317I)-phosphorylated / KINOMEscan: ABL1(F317L)-nonphosphorylated: unit: % Ctrl
panel of 442 kinases [1] = target: T1, panel of 442 kinases (Homo sapiens, UniProt P50613); conditions: Compound Concentration 10 µM
T1 construct: purchased KINOMEscan
T1 sequence (P50613 whole entry): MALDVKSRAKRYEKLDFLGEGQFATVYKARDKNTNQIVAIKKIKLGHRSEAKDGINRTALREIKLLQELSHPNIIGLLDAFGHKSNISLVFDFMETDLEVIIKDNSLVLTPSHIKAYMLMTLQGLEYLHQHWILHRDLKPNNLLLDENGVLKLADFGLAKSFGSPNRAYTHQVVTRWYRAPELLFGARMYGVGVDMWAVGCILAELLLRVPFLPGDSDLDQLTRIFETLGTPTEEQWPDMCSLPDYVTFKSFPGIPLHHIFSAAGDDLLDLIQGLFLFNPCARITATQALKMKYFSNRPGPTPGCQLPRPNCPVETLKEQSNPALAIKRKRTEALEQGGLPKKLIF
Description: (§1) We assessed the selectivity of members of this scaffold using the KINOMEscan methodology across a near comprehensive panel of 442 kinases [[18,27]].

panel of 442 kinases [2] = target: T2, panel of 442 kinases (Homo sapiens, UniProt Q07912); conditions: kinase TNK2; compound concentration 10 µM
T2 construct: purchased KINOMEscan
T2 sequence (Q07912 whole entry): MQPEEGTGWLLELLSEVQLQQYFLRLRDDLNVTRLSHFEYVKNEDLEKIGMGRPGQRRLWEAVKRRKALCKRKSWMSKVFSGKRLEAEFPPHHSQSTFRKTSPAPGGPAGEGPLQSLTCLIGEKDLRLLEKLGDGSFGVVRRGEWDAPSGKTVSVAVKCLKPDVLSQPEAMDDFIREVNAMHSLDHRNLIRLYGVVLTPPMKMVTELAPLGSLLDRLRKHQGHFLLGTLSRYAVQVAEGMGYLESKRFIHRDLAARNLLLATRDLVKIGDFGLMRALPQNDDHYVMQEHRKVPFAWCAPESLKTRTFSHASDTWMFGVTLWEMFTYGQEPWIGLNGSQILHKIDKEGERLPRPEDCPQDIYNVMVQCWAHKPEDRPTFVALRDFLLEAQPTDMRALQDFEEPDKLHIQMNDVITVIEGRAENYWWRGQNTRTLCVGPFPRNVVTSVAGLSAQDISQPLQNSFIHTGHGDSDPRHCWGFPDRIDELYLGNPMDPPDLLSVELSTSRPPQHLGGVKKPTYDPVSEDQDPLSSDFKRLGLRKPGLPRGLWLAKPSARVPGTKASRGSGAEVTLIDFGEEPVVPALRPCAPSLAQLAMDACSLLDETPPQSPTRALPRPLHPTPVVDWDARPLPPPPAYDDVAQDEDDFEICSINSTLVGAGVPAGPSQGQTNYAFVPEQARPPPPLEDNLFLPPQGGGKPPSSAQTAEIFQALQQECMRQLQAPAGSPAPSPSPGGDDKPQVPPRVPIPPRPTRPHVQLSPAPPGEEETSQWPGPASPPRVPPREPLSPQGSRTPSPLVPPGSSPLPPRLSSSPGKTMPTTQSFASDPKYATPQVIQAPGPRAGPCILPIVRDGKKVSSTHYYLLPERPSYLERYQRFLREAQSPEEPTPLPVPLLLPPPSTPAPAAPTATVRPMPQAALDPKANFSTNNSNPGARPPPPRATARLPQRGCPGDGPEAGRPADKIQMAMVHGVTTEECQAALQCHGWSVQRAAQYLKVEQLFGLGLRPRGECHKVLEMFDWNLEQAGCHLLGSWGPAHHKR
Description: as §1

panel of 442 kinases [3] = target: T3, panel of 442 kinases (Homo sapiens, UniProt Q8TDC3); conditions: Compound Concentration 10 µM
T3 construct: purchased KINOMEscan
T3 sequence (Q8TDC3 1-778): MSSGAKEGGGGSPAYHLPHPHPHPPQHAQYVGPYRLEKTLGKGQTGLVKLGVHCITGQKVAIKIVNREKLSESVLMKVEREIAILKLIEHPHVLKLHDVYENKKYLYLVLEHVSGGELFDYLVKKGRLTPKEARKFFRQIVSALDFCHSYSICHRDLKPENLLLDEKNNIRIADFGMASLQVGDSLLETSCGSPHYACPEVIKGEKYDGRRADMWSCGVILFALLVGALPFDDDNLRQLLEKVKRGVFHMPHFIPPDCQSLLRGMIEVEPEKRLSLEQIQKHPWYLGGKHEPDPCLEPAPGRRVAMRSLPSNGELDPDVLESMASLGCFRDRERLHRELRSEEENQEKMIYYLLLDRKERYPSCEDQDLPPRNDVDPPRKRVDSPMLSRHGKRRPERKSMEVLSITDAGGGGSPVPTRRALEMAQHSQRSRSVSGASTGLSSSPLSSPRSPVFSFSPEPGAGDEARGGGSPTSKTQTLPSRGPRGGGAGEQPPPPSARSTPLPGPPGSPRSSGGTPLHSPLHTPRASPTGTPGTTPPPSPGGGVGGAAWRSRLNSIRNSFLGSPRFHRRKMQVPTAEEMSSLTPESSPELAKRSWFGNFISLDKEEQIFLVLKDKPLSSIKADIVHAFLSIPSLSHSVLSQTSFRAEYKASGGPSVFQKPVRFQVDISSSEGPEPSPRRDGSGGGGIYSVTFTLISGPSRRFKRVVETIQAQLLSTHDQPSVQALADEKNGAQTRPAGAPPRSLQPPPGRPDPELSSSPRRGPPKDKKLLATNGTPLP
Description: as §1

| SMILES | KINOMEscan: CDK7 (panel of 442 kinases [1]) | % Ctrl, TNK2 (panel of 442 kinases [2]) [% Ctrl] | KINOMEscan: BRSK1 (panel of 442 kinases [3]) |
| --- | --- | --- | --- |
| COc1cc(C(=O)N2CCC(N3CCN(C)CC3)CC2)ccc1Nc1ncc2c(n1)N(C)c1ccccc1C(=O)N2C [15 (LRRK2-IN-1)] | 86 | 18 | 81 |
| COc1cc(C(=O)N2CCC(N3CCN(C)CC3)CC2)ccc1Nc1ncc2c(n1)N1CCc3cccc(c31)C(=O)N2C [Compound 24] | – | 43 | 82 |
| COc1cc(C(=O)N2CCC(N3CCN(C)CC3)CC2)ccc1Nc1ncc2c(n1)N(C1CCCC1)c1ccccc1C(=O)N2C [Compound 25, 11-cyclopentyl-2-((2-methoxy-4-(4-(4-methylpiperazin-1-yl)piperidine-1-carbonyl)phenyl)amino)-5-methyl-5H-benzo[e]pyrimido[5,4-b][1,4]diazepin-6(11H)-one] | 18 | 35 | 84 |
| CCOc1cc(C(=O)N2CCC(N3CCN(C)CC3)CC2)ccc1Nc1ncc2c(n1)N(C1CCCC1)c1ccccc1C(=O)N2C [Compound 26] | 57 | 80 | 100 |
